Biological target: BRAF V600E (Homo sapiens, UniProt P15056, V600E)
Assay: HiBiT cellular BRAF^V600E degradation assay
Assay type: cell-based
Conditions: A375.10 cells, 24 h; for DC50: concentration at which 50% of total cellular BRAF^V600E is degraded; for Emax: residual protein remaining in the cell, read-out: HiBit 24 h Emax

Sequence of BRAF V600E (P15056 whole entry V600E): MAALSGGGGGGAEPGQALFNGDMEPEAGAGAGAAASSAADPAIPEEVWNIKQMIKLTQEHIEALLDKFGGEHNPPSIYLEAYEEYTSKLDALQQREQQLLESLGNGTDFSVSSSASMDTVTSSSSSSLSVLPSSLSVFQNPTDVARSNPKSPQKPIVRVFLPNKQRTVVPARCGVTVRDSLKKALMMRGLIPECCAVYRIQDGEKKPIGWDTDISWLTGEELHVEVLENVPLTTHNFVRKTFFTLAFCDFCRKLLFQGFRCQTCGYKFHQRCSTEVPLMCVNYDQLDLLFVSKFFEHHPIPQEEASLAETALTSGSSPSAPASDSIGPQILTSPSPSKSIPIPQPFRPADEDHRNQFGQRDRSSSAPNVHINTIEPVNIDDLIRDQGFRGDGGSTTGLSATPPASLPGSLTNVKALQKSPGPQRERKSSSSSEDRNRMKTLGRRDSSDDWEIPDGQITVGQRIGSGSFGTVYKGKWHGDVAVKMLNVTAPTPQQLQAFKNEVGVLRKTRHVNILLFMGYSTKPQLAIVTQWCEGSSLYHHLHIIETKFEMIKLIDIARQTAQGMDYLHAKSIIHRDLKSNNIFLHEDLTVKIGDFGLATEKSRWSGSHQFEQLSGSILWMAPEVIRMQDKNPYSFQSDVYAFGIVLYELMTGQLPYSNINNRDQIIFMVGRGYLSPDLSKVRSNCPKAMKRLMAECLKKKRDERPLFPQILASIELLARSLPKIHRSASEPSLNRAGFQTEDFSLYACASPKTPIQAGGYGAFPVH

| SMILES | DC50 | Emax |
| --- | --- | --- |
| N#Cc1c(NS(=O)(=O)N2CC[C@@H](F)C2)ccc(F)c1Oc1ccc2ncn(-c3cnc(N4CCN(C(=O)CN5CCC(c6ccc(N[C@@H]7CCC(=O)NC7=O)cc6F)CC5)CC4)nc3)c(=O)c2c1 [Example 124, (3R)—N-[2-cyano-3-[3-[2-[4-[2-[4-[4-[[(3R)-2,6-dioxopiperidin-3-yl]amino]-2-fluorophenyl]piperidin-1-yl]acetyl]piperazin-1-yl]pyrimidin-5-yl]-4-oxoquinazolin-6-yl]oxy-4-fluorophenyl]-3-fluoropyrrolidine-1-sulfonamide] | 15.7 nM | 12% |
| N#Cc1c(NS(=O)(=O)N2CCC2)ccc(F)c1Oc1ccc2ncn(-c3cnc(N4CCN(C(=O)CN5CCC(c6ccc(N[C@@H]7CCC(=O)NC7=O)cc6F)CC5)CC4)nc3)c(=O)c2c1 [Example 125, N-[2-cyano-3-[3-[2-[4-[2-[4-[4-[[(3R)-2,6-dioxopiperidin-3-yl]amino]-2-fluorophenyl]piperidin-1-yl]acetyl]piperazin-1-yl]pyrimidin-5-yl]-4-oxoquinazolin-6-yl]oxy-4-fluorophenyl]azetidine-1-sulfonamide] | 15.7 nM | 12.6% |
| CN(C1CC1)S(=O)(=O)Nc1ccc(F)c(Oc2ccc3ncn(-c4cnc(N5CCN(C(=O)CN6CCC(c7ccc(N[C@@H]8CCC(=O)NC8=O)cc7F)CC6)CC5)nc4)c(=O)c3c2)c1C#N [Example 126, 6-[2-cyano-3-[[cyclopropyl(methyl)sulfamoyl]amino]-6-fluorophenoxy]-3-[2-[4-[2-[4-[4-[[(3R)-2,6-dioxopiperidin-3-yl]amino]-2-fluorophenyl]piperidin-1-yl]acetyl]piperazin-1-yl]pyrimidin-5-yl]-4-oxoquinazoline] | 22.2 nM | 13.7% |
| CN(C1CC1)S(=O)(=O)Nc1ccc(F)c(Oc2ccc3ncn(-c4cnc(N5CCN(C(=O)CN6CCC(c7ccc(N[C@H]8CCC(=O)NC8=O)cc7F)CC6)CC5)nc4)c(=O)c3c2)c1C#N [Example 127, 6-[2-cyano-3-[[cyclopropyl(methyl)sulfamoyl]amino]-6-fluorophenoxy]-3-[2-[4-[2-[4-[4-[[(3S)-2,6-dioxopiperidin-3-yl]amino]-2-fluorophenyl]piperidin-1-yl]acetyl]piperazin-1-yl]pyrimidin-5-yl]-4-oxoquinazoline] | 20.7 nM | 8.95% |
| N#Cc1c(NS(=O)(=O)N2C[C@H]3C[C@H]3C2)ccc(F)c1Oc1ccc2ncn(-c3cnc(N4CCN(C(=O)CN5CCC(c6ccc(N[C@H]7CCC(=O)NC7=O)cc6F)CC5)CC4)nc3)c(=O)c2c1 [Example 128, (1S,5R)—N-[2-cyano-3-[3-[2-[4-[2-[4-[4-[[(3S)-2,6-dioxopiperidin-3-yl]amino]-2-fluorophenyl]piperidin-1-yl]acetyl]piperazin-1-yl]pyrimidin-5-yl]-4-oxoquinazolin-6-yl]oxy-4-fluorophenyl]-3-azabicyclo[3.1.0]hexane-3-sulfonamide] | 19.5 nM | 9.91% |
| N#Cc1c(NS(=O)(=O)N2C[C@@H](F)[C@H](F)C2)ccc(F)c1Oc1ccc2ncn(-c3cnc(N4CCN(C(=O)CN5CCC(c6ccc(N[C@H]7CCC(=O)NC7=O)cc6F)CC5)CC4)nc3)c(=O)c2c1 [Example 129, (3R,4R)—N-[2-cyano-3-[3-[2-[4-[2-[4-[4-[[(3S)-2,6-dioxopiperidin-3-yl]amino]-2-fluorophenyl]piperidin-1-yl]acetyl]piperazin-1-yl]pyrimidin-5-yl]-4-oxoquinazolin-6-yl]oxy-4-fluorophenyl]-3,4-difluoropyrrolidine-1-sulfonamide] | 29.6 nM | 10.3% |
| N#Cc1c(NS(=O)(=O)N2CCC2)ccc(F)c1Oc1ccc2ncn(-c3cnc(N4CCN(C(=O)CN5CCC(c6ccc(N[C@H]7CCC(=O)NC7=O)cc6F)CC5)CC4)nc3)c(=O)c2c1 [Example 130, N-[2-cyano-3-[3-[2-[4-[2-[4-[4-[[(3S)-2,6-dioxopiperidin-3-yl]amino]-2-fluorophenyl]piperidin-1-yl]acetyl]piperazin-1-yl]pyrimidin-5-yl]-4-oxoquinazolin-6-yl]oxy-4-fluorophenyl]azetidine-1-sulfonamide] | 16.5 nM | 7.25% |
| N#Cc1c(NS(=O)(=O)C2CCC2)ccc(F)c1Oc1ccc2ncn(-c3cnc(N4CCN(C(=O)CN5CCC(c6ccc(N[C@H]7CCC(=O)NC7=O)cc6F)CC5)CC4)nc3)c(=O)c2c1 [Example 132, N-[2-cyano-3-[3-[2-[4-[2-[4-[4-[[(3S)-2,6-dioxopiperidin-3-yl]amino]-2-fluorophenyl]piperidin-1-yl]acetyl]piperazin-1-yl]pyrimidin-5-yl]-4-oxoquinazolin-6-yl]oxy-4-fluorophenyl]cyclobutanesulfonamide] | 13.8 nM | 11.1% |
| N#Cc1c(NS(=O)(=O)C2CCC2)ccc(F)c1Oc1ccc2ncn(-c3cnc(N4CCN(C(=O)CN5CCC(c6ccc(N[C@@H]7CCC(=O)NC7=O)cc6F)CC5)CC4)nc3)c(=O)c2c1 [Example 133, N-[2-cyano-3-[3-[2-[4-[2-[4-[4-[[(3R)-2,6-dioxopiperidin-3-yl]amino]-2-fluorophenyl]piperidin-1-yl]acetyl]piperazin-1-yl]pyrimidin-5-yl]-4-oxoquinazolin-6-yl]oxy-4-fluorophenyl]cyclobutanesulfonamide] | 27.2 nM | 8.2% |
| CCN(C)S(=O)(=O)Nc1ccc(F)c(Oc2ccc3ncn(-c4cnc(N5CCN(C(=O)CN6CCC(c7ccc(N[C@@H]8CCC(=O)NC8=O)cc7F)CC6)CC5)nc4)c(=O)c3c2COC)c1C#N [Example 135, 6-[2-cyano-3-[[ethyl(methyl)sulfamoyl]amino]-6-fluorophenoxy]-3-[2-[4-[2-[4-[4-[[(3R)-2,6-dioxopiperidin-3-yl]amino]-2-fluorophenyl]piperidin-1-yl]acetyl]piperazin-1-yl]pyrimidin-5-yl]-5-(methoxymethyl)-4-oxoquinazoline] | 31.4 nM | 13.7% |
| CCN(C)S(=O)(=O)Nc1ccc(F)c(Oc2ccc3ncn(-c4cnc(N5CCN(C(=O)CN6CCC(c7ccc(N[C@H]8CCC(=O)NC8=O)cc7F)CC6)CC5)nc4)c(=O)c3c2O)c1C#N [Example 136, 6-[2-cyano-3-[[ethyl(methyl)sulfamoyl]amino]-6-fluorophenoxy]-3-[2-[4-[2-[4-[4-[[(3S)-2,6-dioxopiperidin-3-yl]amino]-2-fluorophenyl]piperidin-1-yl]acetyl]piperazin-1-yl]pyrimidin-5-yl]-5-hydroxy-4-oxoquinazoline] | 16.3 nM | 16.9% |
| CCN(C)S(=O)(=O)Nc1ccc(F)c(Oc2ccc3ncn(-c4cnc(N5CCN(C(=O)CN6CCC(c7ccc(N[C@@H]8CCC(=O)NC8=O)cc7F)CC6)CC5)nc4)c(=O)c3c2O)c1C#N [Example 137, 6-[2-cyano-3-[[ethyl(methyl)sulfamoyl]amino]-6-fluorophenoxy]-3-[2-[4-[2-[4-[4-[[(3R)-2,6-dioxopiperidin-3-yl]amino]-2-fluorophenyl]piperidin-1-yl]acetyl]piperazin-1-yl]pyrimidin-5-yl]-5-hydroxy-4-oxoquinazoline] | 34.2 nM | 25.1% |
| O=C1CC[C@H](Nc2ccc(C3CCN(CC(=O)N4CCN(c5ncc(-n6cnc7ccc(Oc8c(F)ccc(NS(=O)(=O)C9CCCC9)c8F)cc7c6=O)cn5)CC4)CC3)c(F)c2)C(=O)N1 [Example 138, N-[3-[3-[2-[4-[2-[4-[4-[[(3S)-2,6-dioxopiperidin-3-yl]amino]-2-fluorophenyl]piperidin-1-yl]acetyl]piperazin-1-yl]pyrimidin-5-yl]-4-oxoquinazolin-6-yl]oxy-2,4-difluorophenyl]cyclopentanesulfonamide] | 17.2 nM | 10.7% |
| CCN(C)S(=O)(=O)Nc1ccc(F)c(Oc2ccc3ncn(-c4cnc(N5CCN(C(=O)CN6CCC(c7ccc(N[C@@H]8CCC(=O)NC8=O)cc7F)CC6)CC5)nc4)c(=O)c3c2)c1F [Example 139, 3-[2-[4-[2-[4-[4-[[(3R)-2,6-dioxopiperidin-3-yl]amino]-2-fluorophenyl]piperidin-1-yl]acetyl]piperazin-1-yl]pyrimidin-5-yl]-6-[3-[[ethyl(methyl)sulfamoyl]amino]-2,6-difluorophenoxy]-4-oxoquinazoline] | 41.2 nM | 13.2% |
| CCN(C)S(=O)(=O)Nc1ccc(F)c(Oc2ccc3ncn(-c4cnc(N5CCN(C(=O)CN6CCC(c7ccc(N[C@H]8CCC(=O)NC8=O)cc7F)CC6)CC5)nc4)c(=O)c3c2)c1F [Example 140, 3-[2-[4-[2-[4-[4-[[(3S)-2,6-dioxopiperidin-3-yl]amino]-2-fluorophenyl]piperidin-1-yl]acetyl]piperazin-1-yl]pyrimidin-5-yl]-6-[3-[[ethyl(methyl)sulfamoyl]amino]-2,6-difluorophenoxy]-4-oxoquinazoline] | 27.8 nM | 12.3% |
| CCN(C)S(=O)(=O)Nc1ccc(F)c(C(=O)c2ccc3ncn(-c4cnc(N5CCN(C(=O)CN6CCC(c7ccc(N[C@@H]8CCC(=O)NC8=O)cc7F)CC6)CC5)nc4)c(=O)c3c2)c1F [Example 141, 3-[2-[4-[2-[4-[4-[[(3R)-2,6-dioxopiperidin-3-yl]amino]-2-fluorophenyl]piperidin-1-yl]acetyl]piperazin-1-yl]pyrimidin-5-yl]-6-[3-[[ethyl(methyl)sulfamoyl]amino]-2,6-difluorobenzoyl]-4-oxoquinazoline] | 55 nM | 26.3% |
| CCN(C)S(=O)(=O)Nc1ccc(F)c(Oc2ccc3ncn(CCC4CCN(C(=O)CN5CCC(c6ccc7c(C8CCC(=O)NC8=O)nn(C)c7c6)CC5)CC4)c(=O)c3c2)c1C#N (stereo not shown) [Example 144, 6-[2-cyano-3-[[ethyl(methyl)sulfamoyl]amino]-6-fluorophenoxy]-3-[2-[1-[2-[4-[3-(2,6-dioxopiperidin-3-yl)-1-methylindazol-6-yl]piperidin-1-yl]acetyl]piperidin-4-yl]ethyl]-4-oxoquinazoline] | 28.4 nM | 16.7% |

— patent US12486253B2, “Therapeutics for the degradation of mutant BRAF” (C4 THERAPEUTICS, INC., priority 2021, dated 2025)
